Bounds are passed on as bounds.

For this assay, the target named is T1, BaF3 BRAF-KIAA1549 fusion cells (Homo sapiens, UniProt P15056).
T1 construct: The BRAF-KIAA1549 fusion mutant was subcloned into pMXs-IRES-Blasticidin (RTV-016, Cell Biolabs, San Diego, CA); No tag given; Q9HCM3 (UPF0606 protein KIAA1549)
T1 sequence (P15056 whole entry, change not shown, the tested form may be a part): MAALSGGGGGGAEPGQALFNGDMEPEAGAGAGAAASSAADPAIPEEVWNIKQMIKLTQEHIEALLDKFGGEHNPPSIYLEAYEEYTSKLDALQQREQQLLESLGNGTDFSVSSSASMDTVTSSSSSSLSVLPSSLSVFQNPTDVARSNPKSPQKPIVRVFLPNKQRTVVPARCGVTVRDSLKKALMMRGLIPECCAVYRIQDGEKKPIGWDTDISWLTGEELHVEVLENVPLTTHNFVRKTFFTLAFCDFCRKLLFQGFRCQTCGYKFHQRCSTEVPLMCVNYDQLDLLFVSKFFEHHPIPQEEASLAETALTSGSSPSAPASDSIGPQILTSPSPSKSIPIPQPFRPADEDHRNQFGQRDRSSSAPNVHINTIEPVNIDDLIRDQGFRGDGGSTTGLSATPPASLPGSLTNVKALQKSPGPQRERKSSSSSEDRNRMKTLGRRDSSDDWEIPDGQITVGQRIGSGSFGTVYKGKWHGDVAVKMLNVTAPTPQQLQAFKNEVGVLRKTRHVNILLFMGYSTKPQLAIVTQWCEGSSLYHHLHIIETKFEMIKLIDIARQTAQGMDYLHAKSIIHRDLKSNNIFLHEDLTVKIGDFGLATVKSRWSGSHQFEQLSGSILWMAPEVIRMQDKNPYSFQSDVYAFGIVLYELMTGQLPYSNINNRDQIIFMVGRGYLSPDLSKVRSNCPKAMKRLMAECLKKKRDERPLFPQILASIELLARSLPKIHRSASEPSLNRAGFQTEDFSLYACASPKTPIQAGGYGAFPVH
Briefly: BaF3 BRAF-KIAA1549 fusion cell proliferation assay (CellTiterGlo, 96 hours). The format is cell-based. Conditions: Table A1. The method, then:
Retroviral Production: The BRAF-KIAA1549 fusion mutant was subcloned into pMXs-IRES-Blasticidin (RTV-016, Cell Biolabs, San Diego, CA). Retrovirus was produced by transfection of HEK 293T cells with the retroviral BRAF mutant expression vector pMXs-IRES-Blasticidin (RTV-016, Cell Biolabs), pCMV-Gag-Pol vector and pCMV-VSV-G-Envelope vector. Briefly, HEK 293T cells were plated in Poly-D-lysine coated 6-well plate (2.5×10^5 cells per well) and incubated overnight. The next day, retroviral plasmids (1 μg of BRAF-KIAA fusion mutant, 0.32 μg of pCMV-Gag-Pol and 0.165 μg pCMV-VSV-G) were mixed in 300 μL of Optimem (31985, Life Technologies). The mixture was incubated at room temperature for 5 minutes and then added to Optimem containing transfection reagent Lipofectamine (11668, Invitrogen) and incubated for 20 minutes. The mixture was then added dropwise to HEK 293T cells. The next day the medium was replaced with fresh culture medium and retrovirus was harvested at 24 hours.
Generation of BRAF-KIAA1549 fusion stable cell line: BaF3 cells were plated in V-bottom 96 well plate (COSTAR #3894) in 80 μL of RPMI/10% FBS and 0.01 ng/mL mouse IL-3, supplemented with 8 μg/mL polybrene (4×10^4 cells/well). Cells were transduced with 20 μL of BRAF-KIAA1549 fusion viral supernatant by centrifuging for 30 minutes at 1000 rpm. Cells were placed in a 37° C. incubator overnight. Next day 100 μL of RPMI/10% FBS and 0.01 ng/mL mouse IL-3 was added. After 24 hours, 100 μL of cells were transferred to a 24 well plate containing 900 μL of RPM/10% FBS and 15 μg/mL Blasticidin. Contents of the 24 well plate were sampled for cell viability via CellTiterGlo (Promega) over a 2-week period.
Assay for cell proliferation: BaF3 BRAF-KIAA1549 fusion cells were resuspended at 1.5×10^5 c/mL in RPMI containing 10% Heat Inactivated FBS, 1% L-glutamine and dispensed in duplicate (7×10^4 c/well) into 384 well plates. To determine the effect of compound on cell proliferation, BaF3 BRAF-KIAA1549 fusion cells were incubated for 96 hours in the presence of vehicle control (DMSO) or compound at varying concentrations. Inhibition of cell growth was determined by luminescent quantification (Envision by Perkin Elmer) of intracellular ATP content using CellTiterGlo (Promega), according to the protocol provided by the manufacturer. To determine the IC50 values, the vehicle-treated cells were normalized as viable cells and analyzed using the CDD Vault, Collaborative Drug Discovery, Burlingame, CA (the Levenberg-Marquardt algorithm; Levenberg, K., […]; Marquardt, D., 1963).
Tables A1 and A2 assign each compound a code for potency in the BaF3 BRAF-KIAA1549 fusion cell proliferation assay: A, B, C, or D. According to the code, A represents an IC50 value <20 nM; B represents an IC50 value ≥20 nM and <100 nM; C represents an IC50 value ≥100 nM and <500 nM; and D represents an IC50 value ≥500 nM.
On the technique in general: In ATP-based viability assays light output follows the ATP content of the culture.
For `CNc1cc2ncc(-c3cc(F)c(F)c(NC(=O)c4cc(C(C)(C)C#N)ccn4)c3)cc2cn1` [Compound 46, 4-(2-Cyanopropan-2-yl)-N-(2,3-difluoro-5-(7-(methylamino)-1,6-naphthyridin-3-yl)phenyl)picolinamide], the GI50 – broadly, the concentration giving 50% growth inhibition – fell in the range of 100 to 500 nM. Regarding `CNc1cc2ncc(-c3cc(F)cc(NC(=O)c4cc(C(C)(C)C#N)ccn4)c3)cc2cn1` [Compound 47, 4-(2-Cyanopropan-2-yl)-N-(3-fluoro-5-(7-(methylamino)-1,6-naphthyridin-3-yl)phenyl)picolinamide], the GI50 was in the range of 100 to 500 nM. As for `CNc1cc2ncc(-c3cc(NC(=O)c4cc(C(C)(C)C#N)ccn4)cc(Cl)c3C)cc2cn1` [Compound 48, N-(3-Chloro-4-methyl-5-(7-(methylamino)-1,6-naphthyridin-3-yl)phenyl)-4-(2-cyanopropan-2-yl)picolinamide], the figure is ≥ 500 nM; as for `CNc1cc2ncc(-c3cc(NC(=O)c4cc(C(C)(C)C#N)ccn4)cnn3)cc2cn1` [Compound 49, 4-(2-Cyanopropan-2-yl)-N-(6-(7-(methylamino)-1,6-naphthyridin-3-yl)pyridazin-4-yl)picolinamide], < 20 nM. In turn, `CNc1cc2ncc(-c3cc(NC(=O)c4cc(C(C)(C)C#N)ccn4)c(Cl)cc3C)cc2cn1` [Compound 50, N-(2-Chloro-4-methyl-5-(7-(methylamino)-1,6-naphthyridin-3-yl)phenyl)-4-(2-cyanopropan-2-yl)picolinamide] came in with a GI50 of 100 to 500 nM.

Turning to `CNc1cc2ncc(-c3cc(NC(=O)c4cc(C(C)(C)C#N)ccn4)c(F)c(F)c3C)cc2cn1` [Compound 51, 4-(2-Cyanopropan-2-yl)-N-(2,3-difluoro-4-methyl-5-(7-(methylamino)-1,6-naphthyridin-3-yl)phenyl)picolinamide], the GI50 is ≥ 500 nM. As for `CNc1cc2ncc(-c3cc(NC(=O)c4nccc(C(F)(F)F)c4F)cnc3C)cc2cn1` [Compound 52, 3-Fluoro-N-(6-methyl-5-(7-(methylamino)-1,6-naphthyridin-3-yl)pyridin-3-yl)-4-(trifluoromethyl)picolinamide], the figure is < 20 nM; as for `CNc1cc2ncc(-c3cc(C(=O)Nc4cc(C(C)(C)C#N)ccn4)ccc3C)cc2cn1` [Compound 53, N-(4-(2-cyanopropan-2-yl)pyridin-2-yl)-4-methyl-3-(7-(methylamino)-1,6-naphthyridin-3-yl)benzamide], 20 to 100 nM; as for `CNc1cc2ncc(-c3cc(NC(=O)c4ccnc(C(C)(C)C#N)c4)cnc3C)cc2cn1` [Compound 55, 2-(2-Cyanopropan-2-yl)-N-(6-methyl-5-(7-(methylamino)-1,6-naphthyridin-3-yl)pyridin-3-yl)isonicotinamide], < 20 nM. In turn, `CNc1cc2ncc(-c3cc(NC(=O)c4ccnc(C(C)(C)C#N)c4)ccc3C)cc2cn1` [Compound 56, 2-(2-Cyanopropan-2-yl)-N-(4-methyl-3-(7-(methylamino)-1,6-naphthyridin-3-yl)phenyl)isonicotinamide] returned a GI50 of 20 to 100 nM. Take `CNc1cc2ncc(-c3cc(NC(=O)c4ccnc(C(C)C)c4)cnc3C)cc2cn1` [Compound 57, 2-Isopropyl-N-(6-methyl-5-(7-(methylamino)-1,6-naphthyridin-3-yl)pyridin-3-yl)isonicotinamide]: the GI50 was < 20 nM.

Consider `CNc1cc2ncc(-c3cc(NC(=O)c4ccnc(C(C)(C)C)c4)cnc3C)cc2cn1` [Compound 58, 2-(tert-Butyl)-N-(6-methyl-5-(7-(methylamino)-1,6-naphthyridin-3-yl)pyridin-3-yl)isonicotinamide], for which the GI50 lay within 20 to 100 nM. Turning to `CNc1cc2ncc(-c3cc(C(=O)Nc4cc(C(C)(C)C#N)ccn4)cnc3C)cc2cn1` [Compound 59, N-(4-(2-Cyanopropan-2-yl)pyridin-2-yl)-6-methyl-5-(7-(methylamino)-1,6-naphthyridin-3-yl)nicotinamide], the GI50 was in the range of 20 to 100 nM.

Source of the values: patent US20250017914A1, “6-AZA-QUINOLINE DERIVATIVES AND RELATED USES” (Black Diamond Therapeutics, Inc., priority 2021, published 2025).
